From US9428465B2, “Acid ceramidase inhibitors and their use as medicaments” (FONDAZIONE ISTITUTO ITALIANO DI TECHNOLOGIA, priority 2012, dated 2016)

Columns and labels:
SW403 cells [1] = experiment: SW403 cell viability, MTT assay; type: cell-based, human
Experimental: (§1) Cells were seeded in 12- or 96-well plates in complete medium 24 hrs before treatment and then incubated for 24 hrs (single treatment) or 72 hrs (multiple treatments) with different drug concentrations in media without serum. Cell viability was then evaluated.
Alternatively, cell viability was assessed measuring mitochondrial functionality by the MIT assay, which is based on the reduction of the soluble tetrazolium salt MTT [(3-(4,5-dimethylthiazol-2-yl)-2,5-diphenyltetrazolium bromide] into insoluble formazan by mitochondria. Briefly, after treatment, cells were washed with PBS and incubated with 0.5 mg/ml, MTT for 2 hrs at room temperature, MTT reduction was quantified by absorbance at 570 nm using a UV-visible plate reader.

[2] = molecular target: rat acid ceramidase (rAC) (Rattus norvegicus (Rat), UniProt Q6P7S1); experiment: Rat acid ceramidase (rAC) enzymatic assay, LC/MS of lauric acid; type: biochemical; settings: rat acid ceramidase, 100 μM N-lauroyl ceramide, pH 4.5
Experimental: A lysosomal rat acid ceramidase (rAC) protein preparation was obtained from cells stably expressing rAC resuspended in 20 mM Tris HCl (pH 7.5) with 0.32 M sucrose. Samples were sonicated and centrifuged at 800×g for 15 min at 4° C. Supernatants were then centrifuged at 12,000×g for 30 min at 4° C. Pellets were re-suspended in PBS pH 7.4 and subjected to 2 freeze-thaw cycles at −80° C. The suspension was finally centrifuged at 105,000×g for 1 hr at 4° C. and the supernatant containing rAC was then used in the enzymatic assay.
r-AC protein samples were pre-incubated with various concentrations of test compounds or vehicle control in 100 mM NaH2PO4/citrate buffer pH 4.5, 0.1% Nonidet P-40, 3 mM DTT for 30 min at 37° C. Samples were incubated with 100 μM N-lauroyl ceramide (Nu-Chek Prep, Elysian, Minn.) at 37° for 30 min. The reaction was stopped by addition of a mixture of chloroform/methanol (2:1 vol/vol) containing 1 nmol of heptadecanoic acid (HDA; NuChek Prep). The organic phases were collected, dried under nitrogen, and analyzed by LC/MS in the negative-ion mode using heptadecanoic acid (HDA) as internal standard (m/z=199 for lauric acid, m/z=269 for HDA). HDA was eluted on an XDB Eclipse C18 column isocratically at 2.2 mL/min for 1 min with a solvent mixture of 95% methanol and 5% water, both containing 0.25% acetic acid, and 5 mM ammonium acetate. The column temperature was 50° C. Electrospray ionization (ESI) was in the negative mode, capillary voltage was 4 kV, and fragmentor voltage was 100 V. Nitrogen was used as drying gas at a flow rate of 13 L/min and at a temperature of 350° C. Nebulizer pressure was set at 60 psi. We monitored [M-H]− in the selected-ion monitoring (SIM) mode using HDA as internal standard.
Inhibition of rAC activity was calculated as a reduction of lauric acid in the samples compared to vehicle controls. Median inhibitory concentration (IC50) values were calculated by non-linear regression analysis of log [concentration]/inhibition curves using. GraphPad Prism 5 (GraphPad Software, Inc., CA, USA) applying a standard slope curve fitting.

SW403 cells [3] = experiment: SW403 cell viability, trypan blue assay; type: cell-based, human; settings: prolonged (72 hrs) treatment, concentration-response, FIGS. 2A and 2B
Experimental: as §1
The trypan blue exclusion assay is based on the principle that viable cells have intact cell membrane and can therefore exclude the trypan blue dye. Cell viability was measured after 24 hrs incubation with the drug. Cells were harvested, centrifuged at 1200 rpm for 10 min and pellets re-suspended in PBS. To evaluate viability, cells were diluted 1:1 with 0.4% trypan blue dye (Sigma), incubated for 1 min and white (viable) cells were counted with a hemacytometer.

SW403 cells [4] = experiment: Isobolographic analysis of combined treatment of SW403 cells (ED50, trypan blue assay); type: cell-based, human
Experimental: Interaction between drugs was assessed by isobolographic analysis, based on the concept of dose-equivalence which follows from the dose effect curves of the individual drugs (Tallarida R I, Interactions between drugs and occupied receptors. Pharmacol. Ther. 2007, 113, 197-209; Tallarida R J, Raffa R B, The application of drug dose equivalence in the quantitative analysis of receptor occupation and drug combinations. Pharmacol. Ther. 2010; 127, 165-174). Specifically, the individual drugs' potency and efficacy allow calculating the expected effect of a combination of the two drugs.
In the experiment of combined treatment, isobolograms were constructed by plotting on vertical and horizontal axes the ED50 data of the single drugs measured by trypan blue assay after subcronic treatment for 72 hrs. The straight line with axial intercepts represents the isobole of additivity and allows calculating the theoretical additive dose. Synergism is indicated by an observed pair (x, y) that plots below the isobole for the specified effect, whereas sub-additivity is indicated when an observed pair (x, y) plots above the isobole.

[5] = test system: human colon adenocarcinoma cell line SW403; experiment: Ceramide levels in SW403 cells (lipid extraction, LC/MS); type: cell-based; settings: 3 μM, 3 hrs, vs. vehicle
Experimental: Lipids were extracted using a chloroform/methanol mixture (2:1 vol/vol, 3 mL) containing internal standards. The organic phases were collected, dried under nitrogen, and dissolved in methanol/chloroform (3:1 vol/vol) for LC/MS analyses.
Ceramides were analyzed by LC/MS^n, using a 1100-LC system (Agilent Technologies) equipped with an Ion Trap XCT and interfaced with ESI (Agilent Technologies). They were separated on a Poroshell 300 SB C18 column (2.1×75 mm i.d., 5 μm; Agilent Technologies) maintained at 30° C. A linear gradient of methanol in water containing 5 mM ammonium acetate and 0.25% acetic acid (from 80% to 100% of methanol in 3 man) was applied at a flow rate of 1 mL/min. […]
Tissue-derived ceramides were identified by comparison of their LC retention times and MS^n fragmentation patterns with those of authentic standards (Avanti Polar Lipids). Extracted ion chromatograms were used to quantify myristoyl ceramide (C140, m/z 510.5>492.5>264.3), palmitoyl ceramide (C16:0, m/z 538.5>520.3>264.3), stearoyl ceramide (C18:0 m/z 566.5>548.3>264.3), lignoceroylceramide (C24:0 m/z 650.5>632.3>264.3), nervonoylceramide (C24:1 m/z 648.5>630.3>264.3) and using lauroyl ceramide standard (m/z 482.5>464.5>264.3). […]

[6] = SW403 cells, 72 hrs, isobole of additivity, higher than the experimental values

Chain of rat acid ceramidase (rAC) (Q6P7S1 142-394): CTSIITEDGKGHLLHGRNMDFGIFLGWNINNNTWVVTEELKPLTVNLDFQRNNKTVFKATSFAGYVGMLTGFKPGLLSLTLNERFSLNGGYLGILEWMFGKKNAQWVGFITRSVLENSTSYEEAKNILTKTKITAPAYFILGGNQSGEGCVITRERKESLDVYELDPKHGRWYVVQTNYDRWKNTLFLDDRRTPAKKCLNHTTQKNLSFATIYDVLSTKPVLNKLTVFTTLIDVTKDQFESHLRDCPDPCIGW
Chain of rat acid ceramidase (rAC) (Q6P7S1 21-141): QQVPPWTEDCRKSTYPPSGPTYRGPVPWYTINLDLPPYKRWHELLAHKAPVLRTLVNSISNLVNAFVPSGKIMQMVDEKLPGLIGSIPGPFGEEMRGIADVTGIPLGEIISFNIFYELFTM

SMILES: CCCCCCNC(=O)n1cc(C(F)(F)F)c(=O)[nH]c1=O [Example 4, N-hexyl-2,4-dioxo-5-(trifluoromethyl)pyrimidine-1-carboxamide]
- interaction with 5FU in reducing cell viability (MTT assay) (SW403 cells [1]; 72 hrs, compound 30 μM + 5FU 300 nM): synergistic effect
- SW403 cell viability (MTT assay) (SW403 cells [1]; sub-chronic treatment 72 hrs, compounds 30 μM, 5FU 300 nM): reduced cell viability
- IC50 [2]: 0.01 µM
- SW403 cell viability (trypan blue assay) (SW403 cells [3]): reduction of the viability
- theoretical dose (Th) to be used with 20 nM taxol to obtain an additive effect (SW403 cells [4]; [6]): 4.9 µM
- theoretical dose (Th) to be used with 300 nM 5FU to obtain an additive effect (SW403 cells [4]; [6]): 7.8 µM
- interaction with taxol in reducing viability of SW403 cells (isobologram) (SW403 cells [4]; prolonged treatment, 20 nM taxol, trypan blue ED50): synergistic effect
- interaction with 5-fluorouracil in reducing viability of SW403 cells (isobologram) (SW403 cells [4]; prolonged treatment, 300 nM 5FU, trypan blue ED50): synergistic effect
- levels of C14:0, C16:0 and C18:0 ceramide [5]: increased
